Results taken from patent US12643887B2, “Heterocyclic derivatives with cardiomyocyte proliferation activity for treatment of heart diseases” (Tongji University, priority 2019, dated 2026).

Columns and labels:
human CLK1 = target: T1, human CLK1 (Homo sapiens, UniProt P49759); assay: CLK1 enzyme assay (ADP-Glo); format: biochemical; conditions: ADP-Glo, ATP 10 μM; read-out: CLK1 IC50
T1 construct: Recombinant human CLK1 (129-end); GST (N); purchased SignalChem C57-11G; host or cells: Sf9 insect cells
T1 sequence (P49759 129-484 limits assumed): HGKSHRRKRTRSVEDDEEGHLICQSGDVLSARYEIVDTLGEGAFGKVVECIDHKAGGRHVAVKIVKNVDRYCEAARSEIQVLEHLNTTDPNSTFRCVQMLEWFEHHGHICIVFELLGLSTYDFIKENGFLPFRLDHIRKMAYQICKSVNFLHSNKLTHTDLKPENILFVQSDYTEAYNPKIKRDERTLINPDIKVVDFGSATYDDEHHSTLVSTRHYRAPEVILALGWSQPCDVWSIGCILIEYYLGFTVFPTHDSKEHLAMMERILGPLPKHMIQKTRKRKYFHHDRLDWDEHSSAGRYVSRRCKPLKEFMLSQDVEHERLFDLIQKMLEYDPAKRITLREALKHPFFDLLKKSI
Procedure, shortened: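 GST-tagged CLK1 (129-end, Sf9-expressed) at 16 nM was preincubated with compound 30 min at 25 °C in 40 mM Tris pH 7.5, 20 mM MgCl2, 0.1 mg/ml BSA, 50 μM DTT. Reaction with 2 μM substrate and 10 μM ATP ran 60 min at 25 °C. ADP-Glo luminescence gave IC50 by four-parameter fit.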

human GSK3 beta = target: T2, human GSK3 beta (Homo sapiens, UniProt P49841); assay: GSK3 beta enzyme assay (ADP-Glo); format: biochemical; conditions: ATP 25 μM, read-out: GSK3b IC50
T2 construct: Recombinant full-length human GSK3 beta (expressed in Sf9 insect cells with an N-terminal His tag); His (N); purchased SignalChem G09-10H; host or cells: Sf9 insect cells
T2 sequence (P49841 whole entry): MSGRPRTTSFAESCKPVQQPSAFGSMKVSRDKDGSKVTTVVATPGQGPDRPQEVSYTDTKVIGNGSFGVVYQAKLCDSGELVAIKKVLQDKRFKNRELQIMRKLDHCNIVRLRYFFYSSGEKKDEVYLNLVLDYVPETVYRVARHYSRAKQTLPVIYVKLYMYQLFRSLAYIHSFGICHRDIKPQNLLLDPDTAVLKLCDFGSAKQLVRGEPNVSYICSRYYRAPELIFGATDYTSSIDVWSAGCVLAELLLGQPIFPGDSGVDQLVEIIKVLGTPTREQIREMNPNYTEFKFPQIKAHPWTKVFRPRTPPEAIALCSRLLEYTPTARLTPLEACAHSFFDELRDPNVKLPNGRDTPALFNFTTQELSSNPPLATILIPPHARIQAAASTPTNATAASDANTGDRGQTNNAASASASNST
Procedure, shortened: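 Full-length His-tagged human GSK3β from Sf9 cells (4 nM) preincubated 30 min at 25 °C with inhibitor in Tris pH 7.5/MgCl2/BSA/DTT, then reacted 60 min at 25 °C with 13 μM substrate peptide and 25 μM ATP. ADP measured by ADP-Glo luminescence; IC50 from four-parameter logistic fit of % inhibition.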

SMILES	IC50 (human CLK1)	IC50 (human GSK3 beta)
O=C1NC(Nc2ccc3ncsc3c2)=N/C1=C\c1ccc2nc[nH]c2c1 [Example 76, (Z)-5-((1H-benzo[d]imidazol-6-yl)methylene)-2-(benzo[d]thiazol-6-ylamino)-3,5-dihydro-4H-imidazol-4-one]	< 100 nM	100 to 1000 nM
Cn1ncc2cc(/C=C3\N=C(Nc4ccccc4)NC3=O)ccc21 [Example 77, (Z)-5-((1-methyl-1H-indazol-5-yl)methylene)-2-(phenylamino)-3,5-dihydro-4H-imidazol-4-one]	100 to 1000 nM	> 10000 nM
Cn1ncc2cc(/C=C3\N=C(Nc4ccc5ncsc5c4)NC3=O)ccc21 [Example 78, (Z)-2-(benzo[d]thiazol-6-ylamino)-5-((1-methyl-1H-indazol-5-yl)methylene)-3,5-dihydro-4H-imidazol-4-one]	> 10000 nM	> 10000 nM
Cn1ncc2ccc(/C=C3\N=C(Nc4ccccc4)NC3=O)cc21 [Example 79, 5-((1-methyl-1H-indazol-6-yl)methylene)-2-(phenylamino)-3,5-dihydro-4H-imidazol-4-one]	> 10000 nM	> 10000 nM
Cn1ncc2ccc(/C=C3\N=C(Nc4ccc5ncsc5c4)NC3=O)cc21 [Example 80, (Z)-2-(benzo[d]thiazol-6-ylamino)-5-((1-methyl-1H-indazol-6-yl)methylene)-3,5-dihydro-4H-imidazol-4-one]	> 10000 nM	> 10000 nM
O=C1NC(Nc2ccc3c(c2)OCCO3)=N/C1=C\c1ccc2ncsc2c1 [Example 81, (Z)-5-(benzo[d]thiazol-6-ylmethylene)-2-((2,3-dihydrobenzo[b][1,4]dioxin-6-yl)amino)-3,5-dihydro-4H-imidazol-4-one]	< 100 nM	100 to 1000 nM
O=C1NC(Nc2ccc3nccnc3c2)=N/C1=C\c1ccc2ncsc2c1 [Example 82, (Z)-5-(benzo[d]thiazol-6-ylmethylene)-2-(quinoxalin-6-ylamino)-3,5-dihydro-4H-imidazol-4-one]	< 100 nM	100 to 1000 nM
CN(C1=N/C(=C\c2ccc3ncsc3c2)C(=O)N1)c1ccc2ncsc2c1 [Example 83, (Z)-2-(benzo[d]thiazol-6-yl(methyl)amino)-5-(benzo[d]thiazol-6-ylmethylene)-3,5-dihydro-4H-imidazol-4-one]	< 100 nM	1000 to 10000 nM
CN(C1=N/C(=C\c2ccc3c(c2)OCCO3)C(=O)N1)c1ccc2ncsc2c1 [Example 84, (Z)-2-(benzo[d]thiazol-6-yl(methyl)amino)-5-((2,3-dihydrobenzo[b][1,4]dioxin-6-yl)methylene)-3,5-dihydro-4H-imidazol-4-one]	100 to 1000 nM	1000 to 10000 nM
O=C1NC(Nc2ccc3ncsc3c2)=NC1Cc1ccc2ncsc2c1 (centres unmarked) [Example 102, 2-(benzo[d]thiazol-6-ylamino)-5-(benzo[d]thiazol-6-ylmethyl)-3,5-dihydro-4H-imidazol-4-one]	100 to 1000 nM	> 10000 nM
NC1=N/C(=C\c2ccc3ncsc3c2)C(=O)N1 [Example 103, (Z)-2-amino-5-(benzo[d]thiazol-6-ylmethylene)-3,5-dihydro-4H-imidazol-4-one]	< 100 nM	1000 to 10000 nM
O=C1NC(Nc2ccc3nc(Nc4ccccc4)sc3c2)=N/C1=C\c1ccc2ncsc2c1 [Example 104, (Z)-5-(benzo[d]thiazol-6-ylmethylene)-2-((2-(phenylamino)benzo[d]thiazol-6-yl)amino)-3,5-dihydro-4H-imidazol-4-one]	< 100 nM	> 10000 nM
O=C1NC(N(CC2CC2)c2ccc3ncsc3c2)=N/C1=C\c1ccc2ncsc2c1 [Example 105, (Z)-2-(benzo[d]thiazol-6-yl(cyclopropylmethyl)amino)-5-(benzo[d]thiazol-6-ylmethylene)-3,5-dihydro-4H-imidazol-4-one]	> 10000 nM	> 10000 nM
